What was measured:
p38 alpha = molecular target: T1, p38 alpha (Homo sapiens, UniProt Q16539); assay: P38 alpha enzyme inhibition assay (Alphascreen kinase activity assay); type: biochemical; conditions: 100 pM p38 alpha, 2 hours preincubation at 25° C., 250 μM ATP, ATF-2 fusion protein; read-out: p38α inhibition
T1 construct: purchased Invitrogen PV3304
How it was run: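 Phosphorylation of ATF-2 fusion protein (0.3 μg/ml) read by AlphaScreen with anti-phospho-ATF2 antibody after 1 h kinase reaction at 25 °C, initiated by 250 μM ATP. Compounds first incubated 2 h at 25 °C with 100 pM p38 alpha in pH 7.5 HEPES buffer, 1% DMSO. IC50 derived from concentration-response data.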

[1] = tested on: Peripheral Blood Mononuclear Cells (PBMCs), TNFα release; assay: LPS-stimulated PBMC TNFα release assay; type: cell-based; conditions: human PBMC, LPS (10 ng/ml), 18 h, compound 1 h before LPS; read-out: LPS-stimulated PBMC TNFα release inhibition
How it was run: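 TNFα in cell-free supernatant, read on MSD plates, gave % inhibition curves and IC50 (≥3 separate experiments). Healthy-donor PBMCs had 1 h compound exposure at 37 °C in 1% FBS medium, then 18 h stimulation with 10 ng/ml LPS, after a 3 h serum-free rest.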

T1 sequence (Q16539 whole entry, the tested form may be a part): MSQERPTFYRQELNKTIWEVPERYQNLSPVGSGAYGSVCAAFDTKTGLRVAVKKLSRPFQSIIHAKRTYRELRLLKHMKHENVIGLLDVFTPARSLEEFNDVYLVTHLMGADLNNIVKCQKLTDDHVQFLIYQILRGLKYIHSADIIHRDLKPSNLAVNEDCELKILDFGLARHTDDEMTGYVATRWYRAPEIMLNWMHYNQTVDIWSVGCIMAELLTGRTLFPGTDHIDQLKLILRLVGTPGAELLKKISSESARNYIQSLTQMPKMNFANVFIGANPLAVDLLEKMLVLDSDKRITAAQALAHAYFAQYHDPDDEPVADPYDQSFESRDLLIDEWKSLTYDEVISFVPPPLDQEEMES

| Compound | IC50 (p38 alpha) | IC50 [1] |
| --- | --- | --- |
| CN1CCC[C@@]1(C)c1nnc2ccc(O[C@@H]3CC[C@H](NC(=O)Nc4cc(C(=O)NCCO)nc(C(C)(C)C)c4)c4ccccc43)cn12 [Example 61, 6-(tert-Butyl)-4-(3-((1S,4R)-4-((3-((S)-1,2-dimethylpyrrolidin-2-yl)-[1,2,4]triazolo[4,3-a]pyridin-6-yl)oxy)-1,2,3,4-tetrahydronaphthalen-1-yl)ureido)-N-(2-hydroxyethyl)picolinamide] | 1 to 10 nM | 1 to 5 nM |
| CN(C)CCNC(=O)c1cc(NC(=O)N[C@H]2CC[C@@H](Oc3ccc4nnc([C@]5(C)CCCN5C)n4c3)c3ccccc32)cc(C(C)(C)C)n1 [Example 62, 6-(tert-Butyl)-N-(2-(dimethylamino)ethyl)-4-(3-((1S,4R)-4-((3-((S)-1,2-dimethylpyrrolidin-2-yl)-[1,2,4]triazolo[4,3-a]pyridin-6-yl)oxy)-1,2,3,4-tetrahydronaphthalen-1-yl)ureido)picolinamide] | < 1 nM | > 5 nM |
| CC(C)(C)c1cc(NC(=O)N[C@H]2CC[C@@H](Oc3ccc4nnc(C5CCCC5)n4c3)c3ccccc32)nc(C(=O)NCCO)n1 [Example 64] | < 1 nM | > 5 nM |
| CC(C)c1nnc2ccc(O[C@@H]3CC[C@H](NC(=O)Nc4cc(C(C)(C)C)nc(C(=O)NCCO)n4)c4ccccc43)cn12 [Example 65, 4-(tert-butyl)-N-(2-hydroxyethyl)-6-(3-((1S,4R)-4-((3-isopropyl-[1,2,4]triazolo[4,3-a]pyridin-6-yl)oxy)-1,2,3,4-tetrahydronaphthalen-1-yl)ureido)pyrimidine-2-carboxamide] | < 1 nM | > 5 nM |
| CC(C)c1nnc2ccc(O[C@@H]3CC[C@H](NC(=O)Nc4cc(C(C)(C)C)nc(C(=O)NCCN5CCOCC5)n4)c4ccccc43)cn12 [Example 66, 4-(tert-butyl)-6-(3-((1S,4R)-4-((3-isopropyl-[1,2,4]triazolo[4,3-a]pyridin-6-yl)oxy)-1,2,3,4-tetrahydronaphthalen-1-yl)ureido)-N-(2-morpholinoethyl)pyrimidine-2-carboxamide] | 1 to 10 nM | > 5 nM |
| COCCN(C)CCNC(=O)c1nc(NC(=O)N[C@H]2CC[C@@H](Oc3ccc4nnc(C(C)(C)C)n4c3)c3ccccc32)cc(C(C)(C)C)n1 [Example 67, 4-(tert-butyl)-6-(3-((1S,4R)-4-((3-(tert-butyl)-[1,2,4]triazolo[4,3-a]pyridin-6-yl)oxy)-1,2,3,4-tetrahydronaphthalen-1-yl)ureido)-N-(2-((2-methoxyethyl)(methyl)amino)ethyl)pyrimidine-2-carboxamide] | 1 to 10 nM | 1 to 5 nM |

More lines, main results first:

| IC50 (p38 alpha) | Compound | IC50 [1] |
| --- | --- | --- |
| < 1 nM | CC(C)(C)c1cc(NC(=O)N[C@H]2CC[C@@H](Oc3ccc4nnc(C(C)(C)C)n4c3)c3ccccc32)nc(C(=O)NCCN2CCOCC2)n1 [Example 68, 4-(tert-butyl)-6-(3-((1S,4R)-4-((3-(tert-butyl)-[1,2,4]triazolo[4,3-a]pyridin-6-yl)oxy)-1,2,3,4-tetrahydronaphthalen-1-yl)ureido)-N-(2-morpholinoethyl)pyrimidine-2-carboxamide] | 1 to 5 nM |
| < 1 nM | CCC(CC)c1nnc2ccc(O[C@@H]3CC[C@H](NC(=O)Nc4cc(C(C)(C)C)nc(C(=O)NCCN5CCOCC5)n4)c4ccccc43)cn12 [Example 69, 4-(tert-butyl)-N-(2-morpholinoethyl)-6-(3-((1S,4R)-4-((3-(pentan-3-yl)-[1,2,4]triazolo[4,3-a]pyridin-6-yl)oxy)-1,2,3,4-tetrahydronaphthalen-1-yl)ureido)pyrimidine-2-carboxamide] | 1 to 5 nM |
| 1 to 10 nM | COCCN(C)CCNC(=O)c1nc(NC(=O)N[C@H]2CC[C@@H](Oc3ccc4nnc(C(C)C)n4c3)c3ccccc32)cc(C(C)(C)C)n1 [Example 70, 4-(tert-butyl)-6-(3-((1S,4R)-4-((3-isopropyl-[1,2,4]triazolo[4,3-a]pyridin-6-yl)oxy)-1,2,3,4-tetrahydronaphthalen-1-yl)ureido)-N-(2-((2-methoxyethyl)(methyl)amino)ethyl)pyrimidine-2-carboxamide] | > 5 nM |
| < 1 nM | CCC(CC)c1nnc2ccc(O[C@@H]3CC[C@H](NC(=O)Nc4cc(C(C)(C)C)nc(C(=O)NCCO)n4)c4ccccc43)cn12 [Example 72, 4-(tert-butyl)-N-(2-hydroxyethyl)-6-(3-((1S,4R)-4-((3-(pentan-3-yl)-[1,2,4]triazolo[4,3-a]pyridin-6-yl)oxy)-1,2,3,4-tetrahydronaphthalen-1-yl)ureido)pyrimidine-2-carboxamide] | 1 to 5 nM |
| < 1 nM | CCC(CC)c1nnc2ccc(O[C@@H]3CC[C@H](NC(=O)Nc4cc(C(C)(C)C)nc(C(=O)NCCN(C)CCOC)n4)c4ccccc43)cn12 [Example 73, 4-(tert-butyl)-N-(2-((2-methoxyethyl)(methyl)amino)ethyl)-6-(3-((1S,4R)-4-((3-(pentan-3-yl)-[1,2,4]triazolo[4,3-a]pyridin-6-yl)oxy)-1,2,3,4-tetrahydronaphthalen-1-yl)ureido)pyrimidine-2-carboxamide] | 1 to 5 nM |
| 1 to 10 nM | CN(C)CCNC(=O)c1nc(NC(=O)N[C@H]2CC[C@@H](Oc3ccc4nnc(C5CCCC5)n4c3)c3ccccc32)cc(C(C)(C)C)n1 [Example 74, 4-(tert-butyl)-6-(3-((1S,4R)-4-((3-cyclopentyl-[1,2,4]triazolo[4,3-a]pyridin-6-yl)oxy)-1,2,3,4-tetrahydronaphthalen-1-yl)ureido)-N-(2-(dimethylamino)ethyl)-pyrimidine-2-carboxamide] | > 5 nM |
| 1 to 10 nM | CC(C)(C)c1cc(NC(=O)N[C@H]2CC[C@@H](Oc3ccc4nnc(C5CCCC5)n4c3)c3ccccc32)nc(C(=O)NCCN2CCOCC2)n1 [Example 75, 4-(tert-butyl)-6-(3-((1S,4R)-4-((3-cyclopentyl-[1,2,4]triazolo[4,3-a]pyridin-6-yl)oxy)-1,2,3,4-tetrahydronaphthalen-1-yl)ureido)-N-(2-morpholinoethyl)-pyrimidine-2-carboxamide] | > 5 nM |
| 1 to 10 nM | COCCN(C)CCNC(=O)c1nc(NC(=O)N[C@H]2CC[C@@H](Oc3ccc4nnc(C5CCCC5)n4c3)c3ccccc32)cc(C(C)(C)C)n1 [Example 76, 4-(tert-butyl)-6-(3-((1S,4R)-4-((3-cyclopentyl-[1,2,4]triazolo[4,3-a]pyridin-6-yl)oxy)-1,2,3,4-tetrahydronaphthalen-1-yl)ureido)-N-(2-((2-methoxyethyl)(methyl)-amino)ethyl)pyrimidine-2-carboxamide] | > 5 nM |
| < 1 nM | CN(CCO)CCNC(=O)c1nc(NC(=O)N[C@H]2CC[C@@H](Oc3ccc4nnc(C(C)(C)C)n4c3)c3ccccc32)cc(C(C)(C)C)n1 [Example 77, 4-(tert-butyl)-6-(3-((1S,4R)-4-((3-(tert-butyl)-[1,2,4]triazolo[4,3-a]pyridin-6-yl)oxy)-1,2,3,4-tetrahydronaphthalen-1-yl)ureido)-N-(2-((2-hydroxyethyl)(methyl)-amino)ethyl)pyrimidine-2-carboxamide] | 1 to 5 nM |
